The test system of one data set is α7nAChR. Set-up: method as in PMID 11212100, PMID 15781147. The conditions noted are these: cited from earlier work.
Data set [1] relates to human 5-HT3AR with mutations at the Arg65 position. Set-up: method as in PMID 28137449. The settings on record: cited from earlier work.
For a further data set, the target named is T1, wild-type (WT) 5-HT3AR (Mus musculus, UniProt P23979).
T1 construct: Full-length 5-HT3AR messenger RNA (mRNA) was injected into oocytes; expressed in transfected cells; host or cells: Xenopus laevis oocytes (mRNA injection, pTLN vector)
T1 sequence (P23979 24-483 isoform P23979-2 limits assumed): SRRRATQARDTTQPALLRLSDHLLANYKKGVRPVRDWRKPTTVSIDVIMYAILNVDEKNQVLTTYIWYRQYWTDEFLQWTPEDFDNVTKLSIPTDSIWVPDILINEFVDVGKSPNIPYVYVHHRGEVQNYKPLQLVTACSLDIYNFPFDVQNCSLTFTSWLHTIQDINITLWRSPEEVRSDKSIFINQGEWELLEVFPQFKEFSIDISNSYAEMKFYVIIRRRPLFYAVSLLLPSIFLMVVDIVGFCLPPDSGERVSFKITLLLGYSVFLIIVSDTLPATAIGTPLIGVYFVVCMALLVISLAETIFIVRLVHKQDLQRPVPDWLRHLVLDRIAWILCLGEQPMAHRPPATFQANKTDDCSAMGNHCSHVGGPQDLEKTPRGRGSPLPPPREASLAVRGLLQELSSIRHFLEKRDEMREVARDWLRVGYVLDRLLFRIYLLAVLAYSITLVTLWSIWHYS
The data set can be described thus: Serotonin dose response by TEVC recordings in oocytes. In kind it is cell-based. The settings on record: for Normalized current: wt. How it is done: (§1) Data are shown as mean ± s.d. (n is indicated within parentheses). Significance at p = 0.001 (***) and […] calculated by two-sample t test for WT and mutants. Source data are provided as a Source Data file
(§2) The gene encoding mouse 5-HT3AR (purchased from GenScript) was inserted into a Xenopus laevis expression vector (pTLN) using cloning primers shown in Supplementary Table 1. DNA linearization was carried out with the Mlu1 restriction enzyme overnight at 37 °C. mRNA synthesis was done using the mMessage mMachine Kit (Ambion) as per the manufacturer’s instructions and purification was done with RNAeasy Kit (Qiagen). mRNA for studied mutants was prepared in the same way. Three to ten nanograms of mRNA was injected into X. laevis oocytes (stages V–VI) and experiments were performed 2–5 days after injection. For control experiments to verify that no endogenous currents were present, oocytes were injected with the same volume of water. W.F. Boron kindly provided oocytes used in this study. Female X. laevis were purchased from Nasco. Animal experimental procedures were approved by Institutional Animal Care and Use Committee (IACUC) of Case Western Reserve University. […] Oocytes were clamped at a holding potential of −60 mV. Solutions were changed using a syringe pump perfusion system flowing at a rate of 6 ml/min.

In the next data set the target is T2, 5-HT3AR R65A mutant (Mus musculus, UniProt P23979, R92A).
T2 construct: Full-length 5-HT3AR messenger RNA (mRNA) was injected into oocytes; expressed in transfected cells; host or cells: Xenopus laevis oocytes (mRNA injection, pTLN vector)
T2 sequence (P23979 24-483 isoform P23979-2 R92A): T1 sequence (P23979 24-483 isoform P23979-2 limits assumed) with R69A
The description is as above. In kind it is cell-based. How it is done:
as §1, §2

The target in the next data set is T3, 5-HT3AR Y126F mutant (Mus musculus, UniProt P23979, Y153F).
T3 construct: Full-length 5-HT3AR messenger RNA (mRNA) was injected into oocytes; expressed in transfected cells; host or cells: Xenopus laevis oocytes (mRNA injection, pTLN vector)
T3 sequence (P23979 24-483 isoform P23979-2 Y153F): T1 sequence (P23979 24-483 isoform P23979-2 limits assumed) with Y130F
Described as above. The class given is cell-based. How it is done: as §1, §2

The next data set deals with T4, 5-HT3AR W156Y mutant (Mus musculus, UniProt P23979, W183Y).
T4 construct: Full-length 5-HT3AR messenger RNA (mRNA) was injected into oocytes; expressed in transfected cells; host or cells: Xenopus laevis oocytes (mRNA injection, pTLN vector)
T4 sequence (P23979 24-483 isoform P23979-2 W183Y): T1 sequence (P23979 24-483 isoform P23979-2 limits assumed) with W160Y
The data set is described as above. In kind it is cell-based. How it is done:
as §1, §2

Another data set has as its target T5, 5-HT3AR Y207F mutant (Mus musculus, UniProt P23979, Y234F).
T5 construct: Full-length 5-HT3AR messenger RNA (mRNA) was injected into oocytes; expressed in transfected cells; host or cells: Xenopus laevis oocytes (mRNA injection, pTLN vector)
T5 sequence (P23979 24-483 isoform P23979-2 Y234F): T1 sequence (P23979 24-483 isoform P23979-2 limits assumed) with Y211F
Described as above. In kind it is cell-based. How it is done: as §1, §2

A further data set concerns the target T6, 5-HT3AR W63Y mutant (Mus musculus, UniProt P23979, W90Y).
T6 construct: Full-length 5-HT3AR messenger RNA (mRNA) was injected into oocytes; expressed in transfected cells; host or cells: Xenopus laevis oocytes (mRNA injection, pTLN vector)
T6 sequence (P23979 24-483 isoform P23979-2 W90Y): T1 sequence (P23979 24-483 isoform P23979-2 limits assumed) with W67Y
The description is as above. In kind it is cell-based. How it is done:
as §1, §2

For data set [2] the following is noted: tertiary ammonium in the bicyclic ring; no reference given; cited from earlier work.
[3] abbreviates: serotonin dose response, TEVC at −60 mV, oocytes.

Numbering of substitutions follows the chain as printed.

Take `CN1[C@@H]2CC[C@H]1C[C@@H](OC(=O)c1c[nH]c3ccccc13)C2` [tropisetron]: in the data set with α7nAChR, the “binding to α7nAChR” value is reported as “bind to α7nAChR leading to channel activation”. Further, in data set [1], the “effect of mutations at the Arg65 position on binding” value is “only reduced”.

In the case of `NCCc1c[nH]c2ccc(O)cc12` [serotonin], the “Hill coefficient (nH)” value at wild-type (WT) 5-HT3AR (serotonin dose response, TEVC at −60 mV, oocytes, WT) amounted to 2.3 ± 0.17; at 5-HT3AR R65A mutant (setting [3]), 4.4 ± 0.59; at 5-HT3AR Y126F mutant (setting [3]) it was 2.6 ± 0.71; on 5-HT3AR W156Y mutant (setting [3]), 1.58 ± 0.24; at 5-HT3AR Y207F mutant (setting [3]), 1.9 ± 0.27; on 5-HT3AR W63Y mutant (setting [3]), 3.1 ± 0.72. Further, the Normalized current on wild-type (WT) 5-HT3AR (1 microM serotonin) stood at 0.091; on wild-type (WT) 5-HT3AR (2 microM serotonin), 0.3528; at wild-type (WT) 5-HT3AR (3 microM serotonin), 0.5303; on wild-type (WT) 5-HT3AR (5 microM serotonin) it was 0.8338; on wild-type (WT) 5-HT3AR (10 microM serotonin), 0.9464; at wild-type (WT) 5-HT3AR (30 microM serotonin), 1. The Normalized current on 5-HT3AR R65A mutant (2.5 microM serotonin) came to 0.00482; on 5-HT3AR R65A mutant (5 microM serotonin), 0.04808; at 5-HT3AR R65A mutant (15 microM serotonin), 0.6252; on 5-HT3AR R65A mutant (20 microM serotonin) it was 0.7837; on 5-HT3AR R65A mutant (100 microM serotonin), 1; at 5-HT3AR Y126F mutant (10 microM serotonin), 0.04616. The Normalized current at 5-HT3AR Y126F mutant (30 microM serotonin) stood at 0.2137; at 5-HT3AR Y126F mutant (50 microM serotonin), 0.6516; at 5-HT3AR Y126F mutant (100 microM serotonin), 0.7792; at 5-HT3AR Y126F mutant (250 microM serotonin), 0.904; at 5-HT3AR Y126F mutant (500 microM serotonin), 0.985; on 5-HT3AR Y126F mutant (1000 microM serotonin), 1. Also, the Normalized current is given as 0.00976 at 5-HT3AR W156Y mutant (20 microM serotonin); 0.04708 on 5-HT3AR W156Y mutant (50 microM serotonin); 0.2083 at 5-HT3AR W156Y mutant (100 microM serotonin); 0.2793 on 5-HT3AR W156Y mutant (200 microM serotonin); 0.6574 at 5-HT3AR W156Y mutant (500 microM serotonin); 0.8828 on 5-HT3AR W156Y mutant (1000 microM serotonin). The Normalized current is reported as 1 on 5-HT3AR W156Y mutant (2000 microM serotonin); 0.02946 on 5-HT3AR Y207F mutant (5 microM serotonin); 0.2522 on 5-HT3AR Y207F mutant (10 microM serotonin); 0.6081 at 5-HT3AR Y207F mutant (30 microM serotonin); 0.8641 at 5-HT3AR Y207F mutant (50 microM serotonin); 0.8795 on 5-HT3AR Y207F mutant (100 microM serotonin). The Normalized current on 5-HT3AR Y207F mutant (250 microM serotonin) worked out at 0.9933; on 5-HT3AR Y207F mutant (500 microM serotonin), 0.9971; at 5-HT3AR Y207F mutant (1000 microM serotonin), 1; on 5-HT3AR W63Y mutant (2 microM serotonin), 0.00868; at 5-HT3AR W63Y mutant (5 microM serotonin), 0.07991; at 5-HT3AR W63Y mutant (10 microM serotonin), 0.4765. Besides, the results for the Normalized current on 5-HT3AR W63Y mutant (15 microM serotonin), at 5-HT3AR W63Y mutant (30 microM serotonin) and at 5-HT3AR W63Y mutant (100 microM serotonin) were 0.7556, 0.8311 and 1, respectively.

As for `CN1C2CCCC1CC(NC(=O)c1nn(C)c3ccccc13)C2` (stereo not shown) [granisetron], the pKa (in general, the negative logarithm of the acid dissociation constant) in data set [2] is recorded as 9.6. For the same compound, the “binding to α7nAChR” value in the data set with α7nAChR is reported as “does not bind”.

Source of the values: paper PMC6642186, “Molecular mechanism of setron-mediated inhibition of full-length 5-HT3A receptor” (Nature Communications, 2019).
